Experimental data: ChEMBL document CHEMBL1201862, “PubChem BioAssay data set” (2004)
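Interpolation was linear, between the two tested concentrations surrounding the appropriate level; five concentrations were tested over 48 hours in 96-well plates. GI50 = concentration required for 50% inhibition of growth.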 Activity calls are given as the source filed them. Cut-off read from the data, not from the text of the source: active = GI50 up to about 1.1 µM and inactive = higher.

Legend:
Assay in all cases: growth of human tumour cells (NCI), 48 h
RXF 631 = system: RXF 631
SNB-78 = system: SNB-78
M19-MEL = system: M19-MEL
XF498 = system: XF498
DMS-114 = system: DMS-114
LXFL 529 = system: LXFL 529
KM-20L2 = system: KM-20L2
HOP-18 = system: HOP-18

Structure (SMILES) | GI50 (RXF 631) | GI50 (SNB-78) | GI50 (M19-MEL) | GI50 (XF498) | GI50 (DMS-114) | GI50 (LXFL 529) | GI50 (KM-20L2) | GI50 (HOP-18)
O=C(c1ccccc1)C1OC12C(=O)Nc1ccccc12 (stereo not drawn) | 46 µM (inactive) | 43.5 µM (inactive) | 30.4 µM (inactive) | 26.2 µM (inactive) | 27 µM (inactive) | 16.5 µM (inactive) | 28.1 µM (inactive) | –
CCCCCC(=O)Cc1cc(OC)cc2c1C(=O)Oc1cc(O)c(C(=O)O)c(CC(=O)CCCCC)c1O2 | 35.6 µM (inactive) | 44.4 µM (inactive) | 26.2 µM (inactive) | > 100 µM (inactive) | 33.9 µM (inactive) | 55.5 µM (inactive) | 49.4 µM (inactive) | –
O=C1C=CC2(O)OCC3C=C4O[C@@H]5OC6(CCCCC6)O[C@@H]5C4[C@@H]2[C@@H]13 (stereo partly drawn) | – | 24.4 µM (inactive) | 21.1 µM (inactive) | 27.2 µM (inactive) | 21.5 µM (inactive) | 15.1 µM (inactive) | 48.3 µM (inactive) | > 100 µM (inactive)
COC1/C(=C\C(=O)OC(C)(C)C)c2ccccc2N1C(C)=O (stereo not drawn) | > 100 µM (inactive) | > 100 µM (inactive) | > 100 µM (inactive) | 57.5 µM (inactive) | 54.3 µM (inactive) | > 100 µM (inactive) | > 100 µM (inactive) | > 100 µM (inactive)
O=C(O)Cn1c(=O)[nH]c(=O)c2c1ncn2Cc1ccccc1 | > 100 µM (inactive) | > 100 µM (inactive) | > 100 µM (inactive) | > 100 µM (inactive) | > 100 µM (inactive) | > 100 µM (inactive) | > 100 µM (inactive) | –
c1ccc2c(CNCCCCCCCCNCc3cccc4ccccc34)cccc2c1 | – | 2.24 µM (inactive) | 1.73 µM (inactive) | 1.79 µM (inactive) | 1.91 µM (inactive) | 1.82 µM (inactive) | 1.75 µM (inactive) | 5.41 µM (inactive)
Cc1cc(N(CCC#N)CCC#N)ccc1/C=C1\N=C(c2cc([N+](=O)[O-])ccc2Cl)N(c2cccc(Cl)c2)C1=O | > 100 µM (inactive) | > 100 µM (inactive) | > 100 µM (inactive) | – | > 100 µM (inactive) | > 100 µM (inactive) | > 100 µM (inactive) | > 100 µM (inactive)
O=C(O)c1[nH]c(C(=O)O)c(CC(F)(F)C(F)(F)C(F)(F)F)c1CC(F)(F)C(F)(F)C(F)(F)F | > 100 µM (inactive) | > 100 µM (inactive) | > 100 µM (inactive) | > 100 µM (inactive) | > 100 µM (inactive) | > 100 µM (inactive) | > 100 µM (inactive) | > 100 µM (inactive)
CCCCOC1CC2(c3ccc(OC)cc3)C(=O)c3ccccc3N2O1 (stereo not drawn) | > 10 µM (inactive) | > 10 µM (inactive) | > 10 µM (inactive) | > 10 µM (inactive) | 30 µM (inactive) | – | > 10 µM (inactive) | –
CCCCCCCCCCCCCP(=O)(O)OCC | > 100 µM (inactive) | > 100 µM (inactive) | > 100 µM (inactive) | – | > 100 µM (inactive) | > 100 µM (inactive) | > 100 µM (inactive) | > 100 µM (inactive)
COc1cc2cc[n+]3c4cc(OC)c(OC)cc4c(C)cc3c2cc1OC | > 100 µM (inactive) | > 100 µM (inactive) | > 100 µM (inactive) | > 100 µM (inactive) | > 100 µM (inactive) | 35.6 µM (inactive) | > 100 µM (inactive) | > 100 µM (inactive)
O=C1/C(=C\c2ccccc2)C2/C(=C\c3ccccc3)C(=O)/C(=C\c3ccccc3)C2/C1=C\c1ccccc1 (stereo not drawn) | 3.12 µM (inactive) | – | 1.53 µM (inactive) | – | 1.73 µM (inactive) | 0.681 µM (active) | 1.78 µM (inactive) | 48 µM (inactive)
C1=Cc2nc1c(-c1ccccc1)c1nc(c(-c3ccccc3)c3ccc([nH]3)c(-c3ccccc3)c3ccc([nH]3)c2-c2ccccc2)C=C1 [TETRAPHENYLPORPHYRIN] | > 100 µM (inactive) | > 100 µM (inactive) | > 100 µM (inactive) | – | > 100 µM (inactive) | > 100 µM (inactive) | > 100 µM (inactive) | > 100 µM (inactive)
COc1nc(/C=N/NC(N)=S)nc(OC)n1 | 44.2 µM (inactive) | > 100 µM (inactive) | 65.3 µM (inactive) | > 100 µM (inactive) | 47.5 µM (inactive) | > 100 µM (inactive) | 35.4 µM (inactive) | > 100 µM (inactive)
CNC(=O)NCCCC(NC(C)=O)C(=O)NCc1ccccc1 (stereo not drawn) | > 100 µM (inactive) | > 100 µM (inactive) | > 100 µM (inactive) | – | > 100 µM (inactive) | > 100 µM (inactive) | > 100 µM (inactive) | –
O=[N+]([O-])c1ccc(Cl)cc1C1SCc2nc3ccccc3n21 (stereo not drawn) | 37.1 µM (inactive) | 42.9 µM (inactive) | 61.7 µM (inactive) | 65.5 µM (inactive) | 35.6 µM (inactive) | 48.3 µM (inactive) | > 100 µM (inactive) | 13 µM (inactive)
Nc1ncnc2c1ncn2C1CC(OCc2ccccc2[N+](=O)[O-])C(CO)O1 (stereo not drawn) | – | 18.2 µM (inactive) | 16.1 µM (inactive) | 42.2 µM (inactive) | 16.4 µM (inactive) | 13.6 µM (inactive) | 22.2 µM (inactive) | 26.6 µM (inactive)
O=c1cc(-c2ccccc2)oc2cc(OCCSCCCCCCCCCCSCCOc3ccc4c(=O)cc(-c5ccccc5)oc4c3)ccc12 | > 100 µM (inactive) | 68.2 µM (inactive) | > 100 µM (inactive) | – | > 100 µM (inactive) | > 100 µM (inactive) | > 100 µM (inactive) | > 100 µM (inactive)
